Here are results for seven compounds from patent US7687484B2, “Transporter enhanced corticosteroid activity” (priority 2006, dated 2010).

Structures are written as SMILES. Where two headings read alike, the source gives them in different places. Where only a bound is given, the exact number is not on record here.

The conditions of data set [1]: logP reported in literature; cited from earlier work.
Another data set concerns the target T1, transcortin (CBG) (Homo sapiens, UniProt P08185).
T1 construct: from tissue; host or cells: plasma from venous blood of healthy volunteers, charcoal-treated, diluted 100-fold
T1 sequence (P08185 23-405): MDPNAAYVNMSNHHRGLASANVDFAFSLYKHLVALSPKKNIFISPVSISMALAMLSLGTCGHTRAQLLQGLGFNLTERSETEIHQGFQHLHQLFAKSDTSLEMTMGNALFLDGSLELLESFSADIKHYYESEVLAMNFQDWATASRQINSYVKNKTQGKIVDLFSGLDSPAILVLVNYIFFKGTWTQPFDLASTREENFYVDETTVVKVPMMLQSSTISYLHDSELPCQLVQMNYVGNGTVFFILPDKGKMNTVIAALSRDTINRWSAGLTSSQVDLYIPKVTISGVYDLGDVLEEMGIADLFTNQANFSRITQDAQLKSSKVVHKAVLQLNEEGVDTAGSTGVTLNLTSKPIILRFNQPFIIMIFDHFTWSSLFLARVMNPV
Briefly: Binding of corticosteroids to transcortin: 3H-cortisol competition in charcoal-treated diluted plasma. The protocol: Experimental procedure: Venous blood was collected from healthy volunteers into heparin-containing tubes (5 Us/100 ml serum) and cells were separated from plasma by centrifugation (1500 g for 15 min). […] Charcoal-treated plasma was diluted 100-fold with binding buffer (10 mM Tris-HCl; 2 mM DTT (dithiotreitol); 1.5 mM EDTA; 0.02 M Na2MoO4; 10% Glycerol; pH 7.4) and was stored aliquoted at −80° C. […] The assay ingredients were mixed and the tubes were incubated for 1 hour on ice. At the end of the incubation, 0.2 ml of charcoal suspension (0.5% Norit A and 0.05% BSA) was added to each tube. The tubes were briefly agitated and incubated for an additional 10 min at 0° C. They were then centrifuged for 10 min at 15 000 g, and the same aliquots from the clear supernatants were quantitatively decanted into counting vials and combined with 3 ml of toluene-based scintillation fluid. […] Specific binding and IC50-values were calculated.

A further data set has as its target T2, glucocorticoid receptor (Homo sapiens, UniProt P04150).
T2 sequence (P04150 1-777): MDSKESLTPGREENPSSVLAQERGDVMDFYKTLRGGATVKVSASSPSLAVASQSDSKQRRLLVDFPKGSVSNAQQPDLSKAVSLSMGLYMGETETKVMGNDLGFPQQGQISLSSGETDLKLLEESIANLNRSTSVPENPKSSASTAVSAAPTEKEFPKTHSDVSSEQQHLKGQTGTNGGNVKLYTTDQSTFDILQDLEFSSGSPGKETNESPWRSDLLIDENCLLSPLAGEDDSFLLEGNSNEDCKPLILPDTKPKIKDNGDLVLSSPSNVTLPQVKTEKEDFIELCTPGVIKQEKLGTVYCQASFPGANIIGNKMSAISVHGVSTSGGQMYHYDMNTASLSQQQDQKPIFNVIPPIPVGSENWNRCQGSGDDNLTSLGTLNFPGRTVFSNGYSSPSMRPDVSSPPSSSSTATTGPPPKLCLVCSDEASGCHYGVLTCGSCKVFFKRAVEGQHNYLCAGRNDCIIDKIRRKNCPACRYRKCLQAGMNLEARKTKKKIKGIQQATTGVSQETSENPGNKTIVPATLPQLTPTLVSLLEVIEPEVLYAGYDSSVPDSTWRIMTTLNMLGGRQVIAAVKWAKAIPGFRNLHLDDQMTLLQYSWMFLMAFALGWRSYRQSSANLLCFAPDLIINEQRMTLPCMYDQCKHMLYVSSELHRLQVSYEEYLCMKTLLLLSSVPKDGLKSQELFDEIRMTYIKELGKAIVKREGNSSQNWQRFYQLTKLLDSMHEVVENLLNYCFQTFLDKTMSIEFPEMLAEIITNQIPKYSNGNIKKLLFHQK
The conditions noted are these: relative to dexamethasone = 100; average of all values if multiple available; cited from earlier work.

For orientation: logP means a log measure of how a compound divides between an organic and an aqueous phase. Consider `C[C@H]1C[C@H]2[C@@H]3CCC4=CC(=O)C=C[C@]4(C)[C@@]3(F)[C@@H](O)C[C@]2(C)[C@@]1(O)C(=O)CO` [Betamethasone], for which the logP in data set [1] was 1.94.
Consider `CCCC1O[C@@H]2C[C@H]3[C@@H]4CCC5=CC(=O)C=C[C@]5(C)[C@H]4[C@@H](O)C[C@]3(C)[C@]2(C(=O)CO)O1` (stereo partly drawn) [Budesonide, 22R, Budesonide], for which, in data set [1], the logP was 3.24.
One may read the IC50 as the concentration that inhibits the measured activity by half. On to `CCOC(=O)[C@@]1(OC(=O)C(Cl)Cl)CC[C@H]2[C@@H]3CCC4=CC(=O)C=C[C@]4(C)[C@H]3[C@@H](O)C[C@@]21C` [Etiprednol dicloacetate (BNP-166), Etiprednol dicloacetate], for which, on transcortin (CBG) (3 nM 3H-cortisol, 1 hour on ice, plasma diluted 100-fold, read-out: IC50-values (nM) average ± SEM (n)), the 50% inhibitory concentration (IC50) turned out to be 4500 ± 973 nM. The “rBA (relative receptor binding affinity)” value at glucocorticoid receptor was 200.
Take `CCC(=O)O[C@]1(C(=O)SCF)[C@H](C)C[C@H]2[C@@H]3C[C@H](F)C4=CC(=O)C=C[C@]4(C)[C@@]3(F)[C@@H](O)C[C@@]21C` [Fluticasone propionate]: the logP in data set [1] is 4.20. Besides, the IC50 at transcortin (CBG) (estimated, unpublished results Bodor, Kurucz 2006, read-out: CBG Est. IC50) is > 10000 nM.
With `CC(=O)O[C@]1(C(=O)CO)CC[C@H]2[C@@H]3CCC4=CC(=O)CC[C@]4(C)[C@H]3[C@@H](O)C[C@@]21C` [Hydrocortisone 17-acetate], at glucocorticoid receptor, the “rBA (relative receptor binding affinity)” value is 41.
On to `CCCC(=O)O[C@]1(C(=O)CO)CC[C@H]2[C@@H]3CCC4=CC(=O)CC[C@]4(C)[C@H]3[C@@H](O)C[C@@]21C` [Hydrocortisone 17-butyrate], for which, on glucocorticoid receptor, the “rBA (relative receptor binding affinity)” value is 95.
Consider `C[C@@H]1C[C@H]2[C@@H]3CCC4=CC(=O)C=C[C@]4(C)[C@@]3(Cl)[C@@H](O)C[C@]2(C)[C@@]1(O)C(=O)CCl` [Mometasone], for which the “rBA (relative receptor binding affinity)” value at glucocorticoid receptor is on record as 88.
